Experimental data as given in patent publication US10238661B2, “Fused, spirocyclic heteroaromatic compounds for the treatment of bacterial infections” (priority 2014, dated 2019).
Values after ≈ are worked out from the molar mass of the structure shown. Values joined by “and” are separate entries in the source; they are usually repeats but may differ in a detail not shown here. Equal entries are not always repeated. Where two headings read alike, the source gives them in different places.

Legend:
Mycoplasma genitalium = test: microbe, parasite or virus in culture; type: cell-based; conditions: for MIC: Mycoplasmoides genitalium
Mycoplasma pneumoniae = test: Broth microdilution MIC assay (CLSI M43-A), M. pneumoniae; type: cell-based; conditions: for MIC50 / MIC90 / MIC Range: M. pneumoniae isolates, n = 12
Mycoplasma hominis = test: microbe, parasite or virus in culture; type: cell-based
Ureaplasma species [1] = test: microbe, parasite or virus in culture; type: cell-based, Ureaplasma urealyticum, Ureaplasma parvum; conditions: for MIC50 / MIC90 / MIC: Ureaplasma; for MIC: ATCC33175
Ureaplasma species [2] = conditions: Ureaplasma urealyticum ATCC 33175; CLSI M43-A acceptable QC range; cited from earlier work
Francisella tularensis = test: microbe, parasite or virus in culture; type: cell-based
Bacillus anthracis = test: microbe, parasite or virus in culture; type: cell-based
[3] = system: Burkholderia pseudomallei; test: microbe, parasite or virus in culture; type: cell-based
Burkholderia mallei = test: microbe, parasite or virus in culture; type: cell-based; conditions: Burkholderia mallei
Yersinia pestis = test: microbe, parasite or virus in culture; type: cell-based
Brucella melitensis = test: microbe, parasite or virus in culture; type: cell-based
Brucella suis = test: microbe, parasite or virus in culture; type: cell-based
[4] = M. pneumoniae M-129 QC Strain ATCC 29342-B7, read-out: MIC
[5] = M. pneumoniae isolate 51494, read-out: MIC
[6] = M. pneumoniae isolate 53706, read-out: MIC
[7] = M. pneumoniae isolate 53938, read-out: MIC
[8] = M. pneumoniae isolate 54484, macrolide-resistant, read-out: MIC
[9] = M. pneumoniae isolate 54506, macrolide-resistant, read-out: MIC
[10] = M. pneumoniae isolate 55246, read-out: MIC
[11] = M. pneumoniae isolate 55612, read-out: MIC
[12] = M. pneumoniae isolate 57807, read-out: MIC
[13] = M. pneumoniae isolate 58188, read-out: MIC
[14] = M. pneumoniae isolate 58772, read-out: MIC
[15] = M. pneumoniae isolate 59597, read-out: MIC
[16] = M. pneumoniae isolate 59598, read-out: MIC

CC[C@H]1OC(=O)[C@H](C)[C@@H](O[C@H]2C[C@@](C)(OC)[C@@H](O)[C@H](C)O2)[C@H](C)[C@@H](O[C@@H]2O[C@H](C)C[C@H](N(C)C)[C@H]2O)[C@](C)(O)C[C@@H](C)CN(C)[C@H](C)[C@@H](O)[C@]1(C)O [Azithromycin]
MIC Range (Mycoplasma genitalium): <0.001 µg/mL
MIC (Mycoplasma genitalium): < 0.001 µg/mL
MIC (Mycoplasma genitalium; ATCC33530): < 0.001 µg/mL
MIC (Mycoplasma genitalium; ATCC49895): < 0.001 µg/mL
MIC (Mycoplasma genitalium; ATCC49899): < 0.001 µg/mL
MIC (Mycoplasma pneumoniae; [4]): < 0.001 µg/mL
MIC (Mycoplasma pneumoniae; [5]): < 0.001 µg/mL
MIC (Mycoplasma pneumoniae; [6]): < 0.001 µg/mL
MIC (Mycoplasma pneumoniae; [7]): < 0.001 µg/mL
MIC (Mycoplasma pneumoniae; [8]): 32 µg/mL (≈ 42.7 µM)
MIC (Mycoplasma pneumoniae; [9]): 16 µg/mL (≈ 21.4 µM)
MIC (Mycoplasma pneumoniae; [10]): < 0.001 µg/mL
MIC (Mycoplasma pneumoniae; [11]): < 0.001 µg/mL
MIC (Mycoplasma pneumoniae; [12]): < 0.001 µg/mL
MIC (Mycoplasma pneumoniae; [13]): < 0.001 µg/mL
MIC (Mycoplasma pneumoniae; [14]): < 0.001 µg/mL
MIC (Mycoplasma pneumoniae; [15]): < 0.001 µg/mL
MIC (Mycoplasma pneumoniae; [16]): < 0.001 µg/mL
MIC50 (Mycoplasma pneumoniae): < 0.001 µg/mL
MIC90 (Mycoplasma pneumoniae): 16 µg/mL (≈ 21.4 µM)
MIC Range (Mycoplasma pneumoniae): <0.001-32 ^ μg/mL
MIC (Mycoplasma pneumoniae; most M. pneumoniae isolates, read-out: MICs of most isolates): < 0.001 µg/mL
MICs of two macrolide-resistant strains (Mycoplasma pneumoniae; two M. pneumoniae strains with mutations in 23S ribosomal RNA): 32 µg/mL
MIC (Mycoplasma pneumoniae; two M. pneumoniae strains with mutations in 23S ribosomal RNA, read-out: MICs of two macrolide-resistant strains): 16 µg/mL (≈ 21.4 µM)
MIC Range (Mycoplasma hominis): 1 to 8 µg/mL
MIC50 (Mycoplasma hominis; Metamycoplasma hominis): 4 µg/mL (≈ 5.34 µM)
MIC90 (Mycoplasma hominis; Metamycoplasma hominis): 4 µg/mL (≈ 5.34 µM)
MIC Range (Ureaplasma species [1]): 1 to 32 µg/mL
MIC50 (Ureaplasma species [1]): 2 µg/mL (≈ 2.67 µM)
MIC90 (Ureaplasma species [1]): 4 µg/mL (≈ 5.34 µM)
MIC (Ureaplasma species [1]): 2 µg/mL (≈ 2.67 µM)
MIC Limits for Quality Control Strain (Ureaplasma species [2]): 0.5 to 8 µg/mL

O=C(N[C@H](CO)[C@H](O)c1ccc([N+](=O)[O-])cc1)C(Cl)Cl [Chloramphenicol]
MIC (Francisella tularensis): 1 µg/mL (≈ 3.09 µM)
MIC (Francisella tularensis; Francisella tularensis): 2 µg/mL (≈ 6.19 µM)
MIC (Bacillus anthracis): 4 µg/mL (≈ 12.4 µM)
MIC (Bacillus anthracis; Bacillus anthracis): 8 µg/mL (≈ 24.8 µM)

C[C@@H]1CN2c3c(cc4c(N5C(=O)OC[C@@H]5C)noc4c3F)CC3(C(=O)NC(=O)NC3=O)[C@H]2[C@H](C)O1 [Compound 1, (2R,4S,4aS)-11-fluoro-2,4-dimethyl-8-[(4S)-4-methyl-2-oxo-1,3-oxazolidin-3-yl]-1,2,4,4a-tetrahydro-2′H,6H-spiro[1,4-oxazino[4,3-a][1,2]oxazolo[4,5-g]quinoline-5,5′-pyrimidine]-2′,4′,6′(1′H,3′H)-trione]
MIC (Mycoplasma genitalium): 0.5 µg/mL (≈ 1.03 µM)
MIC (Mycoplasma genitalium; ATCC33530): 0.5 µg/mL (≈ 1.03 µM)
MIC (Mycoplasma genitalium; ATCC49895): 1 µg/mL (≈ 2.05 µM)
MIC (Mycoplasma genitalium; ATCC49899): 0.5 µg/mL (≈ 1.03 µM)
MIC90 relative to doxycycline (fold higher) (Mycoplasma pneumoniae; M. pneumoniae): 4 fold
MIC (Mycoplasma pneumoniae; [4]): 0.5 µg/mL (≈ 1.03 µM)
MIC (Mycoplasma pneumoniae; [5]): 0.5 µg/mL (≈ 1.03 µM)
MIC (Mycoplasma pneumoniae; [6]): 0.5 µg/mL (≈ 1.03 µM)
MIC (Mycoplasma pneumoniae; [7]): 0.5 µg/mL (≈ 1.03 µM)
MIC (Mycoplasma pneumoniae; [8]): 0.5 µg/mL (≈ 1.03 µM)
MIC (Mycoplasma pneumoniae; [9]): 0.5 µg/mL (≈ 1.03 µM)
MIC (Mycoplasma pneumoniae; [10]): 1 µg/mL (≈ 2.05 µM)
MIC (Mycoplasma pneumoniae; [11]): 1 µg/mL (≈ 2.05 µM)
MIC (Mycoplasma pneumoniae; [12]): 0.5 µg/mL (≈ 1.03 µM)
MIC (Mycoplasma pneumoniae; [13]): 0.5 µg/mL (≈ 1.03 µM)
MIC (Mycoplasma pneumoniae; [14]): 0.5 µg/mL (≈ 1.03 µM)
MIC (Mycoplasma pneumoniae; [15]): 0.5 µg/mL (≈ 1.03 µM)
MIC (Mycoplasma pneumoniae; [16]): 0.5 µg/mL (≈ 1.03 µM)
MIC50 (Mycoplasma pneumoniae): 0.5 µg/mL (≈ 1.03 µM)
MIC90 (Mycoplasma pneumoniae): 1 µg/mL (≈ 2.05 µM)
in vitro potency against macrolide-resistant versus macrolide-susceptible isolates (Mycoplasma pneumoniae; two macrolide-resistant M. pneumoniae isolates): maintained in vitro potency
MIC90 relative to levofloxacin (fold greater) (Mycoplasma hominis): 16 fold
MIC Range (Mycoplasma hominis): 1 to 8 µg/mL
effect of presence of tetM on MICs (Mycoplasma hominis): not affected by the presence of tetM
MIC50 (Mycoplasma hominis; Metamycoplasma hominis): 2 µg/mL (≈ 4.1 µM)
MIC90 (Mycoplasma hominis; Metamycoplasma hominis): 4 µg/mL (≈ 8.21 µM)
MIC (Mycoplasma hominis; Metamycoplasma hominis, read-out: maximum MIC value): 8 µg/mL (≈ 16.4 µM)
MIC90 potency relative to azithromycin (fold more potent / lower MIC90) (Ureaplasma species [1]): 4 fold
MIC range for isolates containing tetM (Ureaplasma species [1]): 0.5 to 2 µg/mL
difference in MICs, levofloxacin-resistant versus levofloxacin-susceptible isolates (Ureaplasma species [1]): no difference
MIC50 (Ureaplasma species [1]): 0.5 µg/mL (≈ 1.03 µM)
MIC90 (Ureaplasma species [1]): 1 µg/mL (≈ 2.05 µM)
MIC (Ureaplasma species [1]): 0.5 µg/mL (≈ 1.03 µM)
MIC [3]: 64 µg/mL (≈ 131 µM)
MIC90 [3]: >64 µg/mL
MIC ([3]; Burkholderia pseudomallei): 32 µg/mL (≈ 65.6 µM)
MIC50 ([3]; Burkholderia pseudomallei): 32 µg/mL (≈ 65.6 µM)
MIC90 ([3]; Burkholderia pseudomallei): 64 µg/mL (≈ 131 µM)
MIC90 (Burkholderia mallei): 32 µg/mL (≈ 65.6 µM)
MIC50 (Yersinia pestis): 4 µg/mL (≈ 8.21 µM)
MIC50 (Yersinia pestis; Yersinia pestis): 2 µg/mL (≈ 4.1 µM)
MIC (Francisella tularensis): 8 µg/mL (≈ 16.4 µM)
MIC Range (Francisella tularensis): 8 to 16 µg/mL
MIC (Francisella tularensis; Francisella tularensis): 16 µg/mL (≈ 32.8 µM)
MIC50 (Francisella tularensis; Francisella tularensis): 16 µg/mL (≈ 32.8 µM)
MIC90 (Francisella tularensis; Francisella tularensis): 16 µg/mL (≈ 32.8 µM)
MIC90 (Bacillus anthracis): 1 µg/mL (≈ 2.05 µM)
MIC Range (Bacillus anthracis): 0.12 to 1 µg/mL and 0.12 to 4 µg/mL
MIC50 (Bacillus anthracis; Bacillus anthracis): 0.25 µg/mL (≈ 0.513 µM)
MIC90 (Bacillus anthracis; Bacillus anthracis): 0.5 µg/mL (≈ 1.03 µM)
MIC (Brucella melitensis): 16 µg/mL (≈ 32.8 µM)
MIC (Brucella melitensis; Brucella melitensis): 8 µg/mL (≈ 16.4 µM)
MIC (Brucella suis): 1 µg/mL (≈ 2.05 µM)
MIC Range (Brucella suis): 1 to 2 µg/mL
MIC (Brucella suis; Brucella suis): 2 µg/mL (≈ 4.1 µM)
MIC50 (Brucella suis; Brucella suis): 1 µg/mL (≈ 2.05 µM)
MIC90 (Brucella suis; Brucella suis): 2 µg/mL (≈ 4.1 µM)

C[C@H]1c2cccc(O)c2C(=O)C2=C(O)[C@]3(O)C(=O)C(C(N)=O)=C(O)[C@@H](N(C)C)[C@@H]3[C@@H](O)[C@@H]21 [Doxycycline]
MIC Range (Mycoplasma genitalium): 0.25 to 1 µg/mL
MIC (Mycoplasma genitalium): 1 µg/mL (≈ 2.25 µM)
MIC (Mycoplasma genitalium; ATCC33530): 0.25 µg/mL (≈ 0.563 µM)
MIC (Mycoplasma genitalium; ATCC49895): 0.25 µg/mL (≈ 0.563 µM)
MIC (Mycoplasma genitalium; ATCC49899): 0.5 µg/mL (≈ 1.13 µM)
MIC (Mycoplasma pneumoniae; [4]): 0.5 µg/mL (≈ 1.13 µM)
MIC (Mycoplasma pneumoniae; [5]): 0.25 µg/mL (≈ 0.563 µM)
MIC (Mycoplasma pneumoniae; [6]): 0.25 µg/mL (≈ 0.563 µM)
MIC (Mycoplasma pneumoniae; [7]): 0.25 µg/mL (≈ 0.563 µM)
MIC (Mycoplasma pneumoniae; [8]): 0.25 µg/mL (≈ 0.563 µM)
MIC (Mycoplasma pneumoniae; [9]): 0.25 µg/mL (≈ 0.563 µM)
MIC (Mycoplasma pneumoniae; [10]): 0.25 µg/mL (≈ 0.563 µM)
MIC (Mycoplasma pneumoniae; [11]): 0.25 µg/mL (≈ 0.563 µM)
MIC (Mycoplasma pneumoniae; [12]): 0.25 µg/mL (≈ 0.563 µM)
MIC (Mycoplasma pneumoniae; [13]): 0.125 µg/mL (≈ 0.281 µM)
MIC (Mycoplasma pneumoniae; [14]): 0.5 µg/mL (≈ 1.13 µM)
MIC (Mycoplasma pneumoniae; [15]): 0.25 µg/mL (≈ 0.563 µM)
MIC (Mycoplasma pneumoniae; [16]): 0.25 µg/mL (≈ 0.563 µM)
MIC50 (Mycoplasma pneumoniae): 0.25 µg/mL (≈ 0.563 µM)
MIC90 (Mycoplasma pneumoniae): 0.25 µg/mL (≈ 0.563 µM)
MIC Range (Mycoplasma pneumoniae): 0.125 to 0.5 µg/mL
MIC Range (Mycoplasma hominis): 0.016 to 4 µg/mL
MICs for isolates with tetM (Mycoplasma hominis): 4 µg/mL
MICs for isolates without tetM (Mycoplasma hominis): 0.016 to 0.063 µg/mL
MIC50 (Mycoplasma hominis; Metamycoplasma hominis): 0.032 µg/mL (≈ 0.072 µM)
MIC90 (Mycoplasma hominis; Metamycoplasma hominis): 4 µg/mL (≈ 9 µM)
MIC90 activity relative to Compound 1 (fold more active) (Ureaplasma species [1]): 8 fold
MIC Range (Ureaplasma species [1]): 0.016 to 8 µg/mL
MIC range for isolates containing tetM (Ureaplasma species [1]): 4 to 8 µg/mL
MIC50 (Ureaplasma species [1]): 0.125 µg/mL (≈ 0.281 µM)
MIC90 (Ureaplasma species [1]): 8 µg/mL (≈ 18 µM)
MIC (Ureaplasma species [1]): 8 µg/mL (≈ 18 µM)
MIC90 (Ureaplasma species [1]; read-out: MIC90 for doxycycline-susceptible organisms): 0.125 µg/mL (≈ 0.281 µM)
MIC (Yersinia pestis): 1 µg/mL (≈ 2.25 µM)
MIC (Yersinia pestis; Yersinia pestis): 0.5 µg/mL (≈ 1.13 µM)
MIC (Bacillus anthracis; Bacillus anthracis): ≤ 0.031 µg/mL
MIC (Brucella melitensis): 0.125 µg/mL (≈ 0.281 µM)
MIC (Brucella melitensis; Brucella melitensis): 0.25 µg/mL (≈ 0.563 µM)
MIC (Brucella suis): 0.125 µg/mL (≈ 0.281 µM)
MIC (Brucella suis; Brucella suis): 0.063 µg/mL (≈ 0.142 µM)
